# Measurements as given in patent US8765746B2 (Millennium Pharmaceuticals, Inc., priority 2010, dated 2014).
# Experiments:
# Assay type in all cases: biochemical
# PI3Kdelta = biological target: T1, PI3Kdelta (Homo sapiens, UniProt O00329); assay: Human PI3K delta enzyme assay (HTRF, as for PI3K alpha); conditions: for inhibition at 1.11 µM: read-out: PI3Kdelta % inh; for PI3Kdelta % inh: at 1.11 μM
# T1 construct: His (N); host or cells: SF9 insect cells (baculovirus)
# In short: (§1)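 N-His p110β/δ co-expressed with untagged p85 in Sf9, p110γ alone. Enzyme 5.25 nM (β), 0.75 nM (δ), 5 nM (γ), with ATP 25 uM and di-C8 PI(4,5)P2 3.5 uM (added-solution levels), pH 7.00, 30 min RT. HTRF read-out: biotin-PIP3, GST-GRP-1 PH domain, Eu anti-GST, streptavidin-XL.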
# PI3Kbeta = biological target: T2, PI3Kbeta (Homo sapiens, UniProt P42338); assay: Human PI3K beta enzyme assay (HTRF, as for PI3K alpha); conditions: for inhibition at 1.11 µM: read-out: PI3Kbeta % inh; for IC50: read-out: IC50 (inhibit PI3Kbeta); for inhibition at 1.11 µM / PI3Kbeta % inh: at 1.11 μM
# T2 construct: His (N); host or cells: SF9 insect cells (baculovirus)
# T2 sequence (P42338 whole entry): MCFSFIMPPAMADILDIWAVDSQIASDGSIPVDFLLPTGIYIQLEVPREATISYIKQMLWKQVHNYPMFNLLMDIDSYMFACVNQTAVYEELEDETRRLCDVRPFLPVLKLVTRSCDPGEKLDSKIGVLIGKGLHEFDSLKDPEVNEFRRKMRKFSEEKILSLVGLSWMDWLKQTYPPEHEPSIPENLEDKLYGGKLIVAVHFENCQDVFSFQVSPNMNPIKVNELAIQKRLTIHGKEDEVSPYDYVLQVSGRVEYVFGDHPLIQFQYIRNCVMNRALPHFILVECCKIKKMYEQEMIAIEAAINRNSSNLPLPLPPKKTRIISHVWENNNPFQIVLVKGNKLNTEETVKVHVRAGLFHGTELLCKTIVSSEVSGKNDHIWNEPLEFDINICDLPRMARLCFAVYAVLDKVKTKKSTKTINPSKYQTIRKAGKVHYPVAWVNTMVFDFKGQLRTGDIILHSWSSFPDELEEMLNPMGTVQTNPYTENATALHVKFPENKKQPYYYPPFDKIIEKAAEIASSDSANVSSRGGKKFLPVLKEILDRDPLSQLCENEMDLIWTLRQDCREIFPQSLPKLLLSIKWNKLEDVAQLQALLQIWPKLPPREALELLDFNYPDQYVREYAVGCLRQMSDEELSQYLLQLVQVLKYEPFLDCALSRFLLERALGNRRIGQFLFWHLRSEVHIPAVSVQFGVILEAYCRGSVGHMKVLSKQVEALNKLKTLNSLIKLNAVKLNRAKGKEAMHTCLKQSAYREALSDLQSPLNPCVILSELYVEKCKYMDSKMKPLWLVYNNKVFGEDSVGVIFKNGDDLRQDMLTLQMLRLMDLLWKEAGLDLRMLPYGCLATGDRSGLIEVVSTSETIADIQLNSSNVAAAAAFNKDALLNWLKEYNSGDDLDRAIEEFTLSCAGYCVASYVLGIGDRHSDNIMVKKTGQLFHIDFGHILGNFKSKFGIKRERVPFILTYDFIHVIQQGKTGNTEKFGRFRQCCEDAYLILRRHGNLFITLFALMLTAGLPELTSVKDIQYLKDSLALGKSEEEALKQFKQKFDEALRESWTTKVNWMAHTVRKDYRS
# T2 sequence (P27986 whole entry partner): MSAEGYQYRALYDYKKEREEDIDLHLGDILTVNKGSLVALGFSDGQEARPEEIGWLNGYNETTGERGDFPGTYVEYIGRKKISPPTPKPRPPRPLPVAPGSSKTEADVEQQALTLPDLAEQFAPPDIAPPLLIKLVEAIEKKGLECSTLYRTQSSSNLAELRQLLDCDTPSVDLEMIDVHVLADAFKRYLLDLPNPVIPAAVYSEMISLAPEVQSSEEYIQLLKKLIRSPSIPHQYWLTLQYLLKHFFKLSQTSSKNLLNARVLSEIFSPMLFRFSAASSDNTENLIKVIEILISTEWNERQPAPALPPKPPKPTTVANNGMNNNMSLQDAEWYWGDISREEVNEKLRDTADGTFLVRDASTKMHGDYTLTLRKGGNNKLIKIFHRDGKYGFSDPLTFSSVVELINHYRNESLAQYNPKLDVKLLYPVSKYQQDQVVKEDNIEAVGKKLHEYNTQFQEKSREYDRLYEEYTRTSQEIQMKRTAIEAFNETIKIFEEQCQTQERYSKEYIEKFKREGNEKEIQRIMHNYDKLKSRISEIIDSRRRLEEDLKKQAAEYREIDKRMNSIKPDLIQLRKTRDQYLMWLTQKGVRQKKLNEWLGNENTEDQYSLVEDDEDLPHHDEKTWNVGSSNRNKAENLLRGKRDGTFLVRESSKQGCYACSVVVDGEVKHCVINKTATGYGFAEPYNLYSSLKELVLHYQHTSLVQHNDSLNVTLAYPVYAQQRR
# In short: as §1
# PI3Kgamma = biological target: T3, PI3Kgamma (Homo sapiens, UniProt P48736); assay: Human PI3K gamma enzyme assay (HTRF, as for PI3K alpha); conditions: for inhibition at 1.11 µM: read-out: PI3Kgamma % inh; for PI3Kgamma % inh: at 1.11 μM
# T3 construct: His (N); host or cells: SF9 insect cells (baculovirus)
# In short: as §1
# PI3Kalpha = biological target: T4, PI3Kalpha (Homo sapiens, UniProt P42336); assay: Human PI3Kα enzyme assay (HTRF); conditions: for inhibition at 1.11 µM: read-out: PI3Kalpha % inh; for PI3Kalpha % inh: at 1.11 μM
# T4 construct: His (N); host or cells: SF9 insect cells (baculovirus)
# T4 sequence (P42336 whole entry): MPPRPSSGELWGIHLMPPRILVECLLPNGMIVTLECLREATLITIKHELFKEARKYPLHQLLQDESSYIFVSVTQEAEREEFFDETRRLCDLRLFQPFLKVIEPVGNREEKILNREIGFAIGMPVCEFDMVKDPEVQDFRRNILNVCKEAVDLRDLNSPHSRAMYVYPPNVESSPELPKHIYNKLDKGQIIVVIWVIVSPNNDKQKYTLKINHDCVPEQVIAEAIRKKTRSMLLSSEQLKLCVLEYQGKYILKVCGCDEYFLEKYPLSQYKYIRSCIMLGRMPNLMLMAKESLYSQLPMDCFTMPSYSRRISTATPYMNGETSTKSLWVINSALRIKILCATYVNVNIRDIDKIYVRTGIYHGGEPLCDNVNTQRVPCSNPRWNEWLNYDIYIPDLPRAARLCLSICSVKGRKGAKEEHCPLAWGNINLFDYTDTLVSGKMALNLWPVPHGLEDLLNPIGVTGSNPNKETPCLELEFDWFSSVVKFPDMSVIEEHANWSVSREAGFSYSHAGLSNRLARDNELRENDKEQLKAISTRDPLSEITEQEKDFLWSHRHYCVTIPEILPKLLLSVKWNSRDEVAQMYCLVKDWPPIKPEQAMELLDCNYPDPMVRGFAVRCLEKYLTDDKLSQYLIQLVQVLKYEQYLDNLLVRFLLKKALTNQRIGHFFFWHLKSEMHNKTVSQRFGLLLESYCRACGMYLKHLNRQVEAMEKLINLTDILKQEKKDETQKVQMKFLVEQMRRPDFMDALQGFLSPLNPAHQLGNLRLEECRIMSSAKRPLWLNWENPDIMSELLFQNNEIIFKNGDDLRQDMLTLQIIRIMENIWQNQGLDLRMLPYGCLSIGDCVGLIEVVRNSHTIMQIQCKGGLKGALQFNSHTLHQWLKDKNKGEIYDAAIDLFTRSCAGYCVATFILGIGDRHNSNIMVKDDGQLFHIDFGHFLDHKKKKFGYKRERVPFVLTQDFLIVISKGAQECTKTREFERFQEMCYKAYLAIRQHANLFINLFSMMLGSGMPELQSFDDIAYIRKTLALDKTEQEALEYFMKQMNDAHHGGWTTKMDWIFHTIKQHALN
# T4 sequence (P27986 whole entry partner): as the sequence (P27986 whole entry partner) above
# In short: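 His-tagged p110α co-expressed with p85 in Sf9 cells was reacted for 30 min at room temperature in pH 7.00 Hepes buffer with 10 mM MgCl2. Addition solutions held 25 uM ATP, 3.5 uM di-C8 PI(4,5)P2 and 0.4875 nM enzyme. The reaction was quenched with EDTA/biotin-PIP3 and detected by HTRF (GST-GRP-1 PH domain, streptavidin-XL, Eu anti-GST) after 1 h.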
# VPS34 = biological target: T5, VPS34 (Homo sapiens, UniProt Q8NEB9); assay: Human VPS34 enzyme assay (Adapta Universal Kinase Assay); conditions: for VPS34 % ihn: at 1.11 μM; for inhibition at 1.11 µM: 1 h, read-out: VPS34 % ihn
# T5 construct: GST (N); host or cells: SF9 insect cells (baculovirus)
# T5 sequence (Q8NEB9 whole entry): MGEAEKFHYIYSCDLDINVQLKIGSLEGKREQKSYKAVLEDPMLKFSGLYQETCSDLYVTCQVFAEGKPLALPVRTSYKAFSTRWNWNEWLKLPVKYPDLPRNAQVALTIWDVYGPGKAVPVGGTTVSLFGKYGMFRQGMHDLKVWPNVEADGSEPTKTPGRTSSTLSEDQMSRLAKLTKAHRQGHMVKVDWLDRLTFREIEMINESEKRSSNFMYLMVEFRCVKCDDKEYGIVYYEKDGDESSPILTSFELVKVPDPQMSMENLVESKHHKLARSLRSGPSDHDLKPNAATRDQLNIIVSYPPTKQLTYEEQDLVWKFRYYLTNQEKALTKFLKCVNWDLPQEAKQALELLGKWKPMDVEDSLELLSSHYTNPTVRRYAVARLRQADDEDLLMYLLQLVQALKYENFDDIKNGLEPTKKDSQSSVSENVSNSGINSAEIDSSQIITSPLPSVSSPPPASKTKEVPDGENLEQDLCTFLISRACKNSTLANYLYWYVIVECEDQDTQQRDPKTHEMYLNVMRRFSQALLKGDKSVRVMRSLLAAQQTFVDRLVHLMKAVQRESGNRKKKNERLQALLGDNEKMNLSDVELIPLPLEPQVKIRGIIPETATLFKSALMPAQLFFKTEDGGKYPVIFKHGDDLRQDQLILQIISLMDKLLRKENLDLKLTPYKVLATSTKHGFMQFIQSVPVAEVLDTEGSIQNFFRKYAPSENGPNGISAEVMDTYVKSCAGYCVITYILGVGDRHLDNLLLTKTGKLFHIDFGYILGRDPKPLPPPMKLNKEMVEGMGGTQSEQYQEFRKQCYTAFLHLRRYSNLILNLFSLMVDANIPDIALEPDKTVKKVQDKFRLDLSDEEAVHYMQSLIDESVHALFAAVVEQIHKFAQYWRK
# Description: VPS34 (accession number GB:BC033004) is cloned into pDEST20-Thombin as N-terminal GST tagged fusion proteins using the Gateway system (Invitrogen, catalog#11804-013). The sequences are verified before recombinant protein expression using the Baculovirus Expression System with Gateway® Technology.
# For expression VPS34 was infected at 1MOI in SF9 cells and harvested 72 hours post infection.
# For purification, VPS34 is purified by Glutathione Sepharose 4 Fast Flow (GE Healthcare #17-5132-03) followed by HiTrap Q (GE Healthcare #17-1153-01).
# 3) VPS34 is assayed using Adapta™ Universal Kinase Assay Kit (Invitrogen).
# 4) Human VPS34 enzyme assay method
# […] compounds in DMSO are added to wells of a 384 well microtitre plate (Greiner 780076). At room temperature: 5 ul VPS34 reaction buffer (Invitrogen Assay Buffer Q (diluted 1 in 5 with nanopure water) plus 2 mM DTT and 2 mM MnCl2) containing ATP (20 uM, Promega) and 200 uM PI-PS substrate (Invitrogen PV5122) is added followed immediately by 5 ul VPS34 reaction buffer (as above) containing VPS34 (5 nM, Millennium Protein Sciences Group) and the mixture is incubated with shaking at room temperature for 1 hour. Then 5 ul VPS34 stop-detect mix (as per Invitrogen Adapta Assay kit (PV5009) instructions (contains kinase quench buffer, TR-FRET buffer, Adapta Eu anti-ADP antibody and Alexa Fluor 647 ADP tracer)) is added to quench the reaction. The plates are then incubated for 30 minutes at room temperature with shaking and then read on a BMG PheraStar Plus reader.
# T1 sequence (O00329 whole entry): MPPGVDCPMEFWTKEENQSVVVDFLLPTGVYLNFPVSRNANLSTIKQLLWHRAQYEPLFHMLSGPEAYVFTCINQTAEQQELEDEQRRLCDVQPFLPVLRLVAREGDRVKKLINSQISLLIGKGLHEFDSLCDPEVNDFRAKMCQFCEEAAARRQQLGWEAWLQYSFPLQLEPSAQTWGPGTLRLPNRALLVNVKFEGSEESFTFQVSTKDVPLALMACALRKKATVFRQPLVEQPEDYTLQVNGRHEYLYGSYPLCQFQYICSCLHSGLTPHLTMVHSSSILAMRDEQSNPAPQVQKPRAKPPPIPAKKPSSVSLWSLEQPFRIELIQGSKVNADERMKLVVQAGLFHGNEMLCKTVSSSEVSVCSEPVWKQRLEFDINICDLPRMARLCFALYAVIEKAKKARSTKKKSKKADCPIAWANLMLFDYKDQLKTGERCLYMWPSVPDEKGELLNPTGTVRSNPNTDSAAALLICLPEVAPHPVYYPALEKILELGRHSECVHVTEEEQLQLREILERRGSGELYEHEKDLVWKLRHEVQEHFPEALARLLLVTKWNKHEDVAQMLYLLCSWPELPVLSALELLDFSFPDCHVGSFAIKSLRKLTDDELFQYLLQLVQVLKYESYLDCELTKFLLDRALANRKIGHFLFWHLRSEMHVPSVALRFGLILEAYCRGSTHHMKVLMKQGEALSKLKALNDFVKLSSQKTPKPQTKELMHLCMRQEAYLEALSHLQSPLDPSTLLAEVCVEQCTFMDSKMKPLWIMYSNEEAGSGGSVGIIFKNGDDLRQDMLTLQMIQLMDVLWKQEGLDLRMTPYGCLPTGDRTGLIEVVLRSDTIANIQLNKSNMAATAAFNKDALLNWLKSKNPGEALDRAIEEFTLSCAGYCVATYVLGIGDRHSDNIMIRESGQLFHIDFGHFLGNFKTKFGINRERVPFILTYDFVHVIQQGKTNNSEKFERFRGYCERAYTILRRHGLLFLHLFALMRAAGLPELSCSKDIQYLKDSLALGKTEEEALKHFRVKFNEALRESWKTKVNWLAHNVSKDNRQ
# T1 sequence (P27986 whole entry partner): as the sequence (P27986 whole entry partner) above
smiles,measurement,setting,value
O=C1NCC(c2ccc(Cl)cc2)c2cc(-c3ccncc3)sc21 (stereo not shown) [Compound 30],inhibition at 1.11 µM,PI3Kdelta,36%
same,inhibition at 1.11 µM,PI3Kbeta,94.9%
same,IC50,PI3Kbeta,< 0.1 µM
same,inhibition at 1.11 µM,PI3Kgamma,11.2%
same,inhibition at 1.11 µM,PI3Kalpha,6.3%
same,VPS34 % ihn,VPS34,−0.200%
O=C1NCCCC(c2ccc(Cl)cc2)c2cc(-c3ccncc3)sc21 (stereo not shown) [Compound 31],inhibition at 1.11 µM,PI3Kdelta,50.5%
same,inhibition at 1.11 µM,PI3Kbeta,83.3%
same,IC50,PI3Kbeta,0.1 to 1 µM
same,inhibition at 1.11 µM,PI3Kgamma,6.9%
same,inhibition at 1.11 µM,PI3Kalpha,16.6%
same,inhibition at 1.11 µM,VPS34,2%
O=C1CC(c2ccc(Cl)cc2F)c2cc(N3CCOCC3)sc21 (stereo not shown) [Compound 117],inhibition at 1.11 µM,PI3Kdelta,81.2%
same,inhibition at 1.11 µM,PI3Kbeta,101%
same,inhibition at 1.11 µM,PI3Kgamma,35.5%
same,inhibition at 1.11 µM,PI3Kalpha,26.6%
same,inhibition at 1.11 µM,VPS34,6.21%
CN(C)C(=O)[C@@H]1NC(=O)c2sc(N3CCOCC3)cc2[C@H]1c1ccc(Cl)cc1 [Compound 125],inhibition at 1.11 µM,PI3Kdelta,44.5%
same,inhibition at 1.11 µM,PI3Kbeta,71.8%
same,inhibition at 1.11 µM,PI3Kgamma,16.7%
same,inhibition at 1.11 µM,PI3Kalpha,22.6%
same,inhibition at 1.11 µM,VPS34,24.4%
NC(=O)[C@@H]1NC(=O)c2sc(N3CCOCC3)cc2[C@H]1c1ccc(Cl)cc1 [Compound 126],PI3Kdelta % inh,PI3Kdelta,75.35%
same,PI3Kbeta % inh,PI3Kbeta,98.08%
same,PI3Kgamma % inh,PI3Kgamma,36.62%
same,PI3Kalpha % inh,PI3Kalpha,39.72%
same,VPS34 % ihn,VPS34,26.74%
O=C1NCC(c2ccc(Cl)cc2)c2cc(N3CCOCC3)sc21 (stereo not shown) [Compound 128],inhibition at 1.11 µM,PI3Kdelta,87%
same,PI3Kbeta % inh,PI3Kbeta,107.54%
same,inhibition at 1.11 µM,PI3Kgamma,45.9%
same,PI3Kalpha % inh,PI3Kalpha,18.03%
same,inhibition at 1.11 µM,VPS34,36.3%
O=C1CCC(O)C(c2ccc(Cl)cc2)c2cc(-c3ccncc3)sc21 (stereo not shown) [Compound 129],PI3Kdelta % inh,PI3Kdelta,26.46%
same,PI3Kbeta % inh,PI3Kbeta,59.86%
same,PI3Kgamma % inh,PI3Kgamma,3.89%
same,PI3Kalpha % inh,PI3Kalpha,2.32%
same,VPS34 % ihn,VPS34,−2.80%
"N#Cc1c(N2CCOCC2)sc2c1C(c1ccc(Cl)cc1)NC2=O (stereo not shown) [Compound 134, 4-(4-chlorophenyl)-2-(morpholin-4-yl)-6-oxo-5,6-dihydro-4H-thieno[2,3-c]pyrrole-3-carbonitrile]",inhibition at 1.11 µM,PI3Kdelta,76.5%
same,inhibition at 1.11 µM,PI3Kbeta,93.8%
same,inhibition at 1.11 µM,PI3Kgamma,32.2%
same,inhibition at 1.11 µM,PI3Kalpha,33%
same,inhibition at 1.11 µM,VPS34,9.44%
"CC1(C)CNC(=O)c2sc(-c3ccncc3)cc2C1c1ccc(Cl)cc1 (stereo not shown) [Compound 140, 4-(4-chlorophenyl)-5,5-dimethyl-2-pyridin-4-yl-4,5,6,7-tetrahydro-8H-thieno[2,3-c]azepin-8-one]",inhibition at 1.11 µM,PI3Kdelta,67.9%
same,inhibition at 1.11 µM,PI3Kbeta,98.3%
same,inhibition at 1.11 µM,PI3Kgamma,18.1%
same,inhibition at 1.11 µM,PI3Kalpha,8.99%
same,inhibition at 1.11 µM,VPS34,19.5%
"CN1CCC(c2ccc(Cl)cc2)c2cc(N3CCOCC3)sc2C1=O (stereo not shown) [Compound 141, 4-(4-chlorophenyl)-7-methyl-2-(morpholin-4-yl)-4,5,6,7-tetrahydro-8H-thieno[2,3-c]azepin-8-one]",inhibition at 1.11 µM,PI3Kdelta,47.2%
same,inhibition at 1.11 µM,PI3Kbeta,77%
same,inhibition at 1.11 µM,PI3Kgamma,6.82%
same,inhibition at 1.11 µM,PI3Kalpha,4.69%
same,inhibition at 1.11 µM,VPS34,15.1%
"C[Si](C)(C)CCOCN1CC(O)(c2ccc3ccccc3c2)c2cc(N3CCOCC3)sc2S1(=O)=O (stereo not shown) [Compound 144, 6-(morpholin-4-yl)-4-(2-naphthyl)-2-{[2-(trimethylsilyl)ethoxy]methyl}-3,4-dihydro-2H-thieno[3,2-e][1,2]thiazin-4-ol 1,1-dioxide]",inhibition at 1.11 µM,PI3Kdelta,111%
same,inhibition at 1.11 µM,PI3Kbeta,101%
same,inhibition at 1.11 µM,PI3Kgamma,67.8%
same,inhibition at 1.11 µM,PI3Kalpha,41.6%
same,inhibition at 1.11 µM,VPS34,5.73%
O=C1CC(c2ccc(Cl)cc2)c2cc(N3CCOCC3)sc21 (stereo not shown) [Compound 145],PI3Kdelta % inh,PI3Kdelta,88.59%
same,PI3Kbeta % inh,PI3Kbeta,101.66%
same,PI3Kgamma % inh,PI3Kgamma,50.45%
same,PI3Kalpha % inh,PI3Kalpha,18.36%
same,VPS34 % ihn,VPS34,−1.31%
"CC1(C)C(=O)c2sc(-c3ccncc3)cc2C1c1ccc(Cl)cc1 (stereo not shown) [Compound 147, 4-(4-chlorophenyl)-5,5-dimethyl-2-(pyridin-4-yl)-4H-cyclopenta[b]thiophen-6(5H)-one]",inhibition at 1.11 µM,PI3Kdelta,9.91%
same,inhibition at 1.11 µM,PI3Kbeta,65.7%
same,inhibition at 1.11 µM,PI3Kgamma,2.45%
same,inhibition at 1.11 µM,PI3Kalpha,3.15%
same,inhibition at 1.11 µM,VPS34,9.65%
